The values that follow are results of earlier work, collected in patent US11759493B2, “Composition for the treatment of constipation” (NEILOS S.R.L., priority 2017, dated 2023).

Each structure is given as a SMILES string.

For series [1] the following is noted: 10 g, versus placebo, healthy individuals.
The conditions of series [2]: 20 and 40 g per day, both study groups.
For series [3] the following is noted: patients affected by constipation, meta-analysis.

As to `OC[C@H]1O[C@@H](O[C@@H]2[C@@H](CO)OC(O)(CO)[C@H]2O)[C@H](O)[C@@H](O)[C@H]1O` (mixture of isomers) [lactulose], the “transit in the small intestine” value in series [1] was “accelerating effect”. Also, the “frequency, volume and weight of feces” value in series [2] is given as “significant increase”.

As for `OC[C@@H](O)[C@@H](O[C@@H]1O[C@H](CO)[C@H](O)[C@H](O)[C@H]1O)[C@H](O)[C@@H](O)CO` [lactitol, 4-O-β-D-galactopyranosyl-D-glucitol], the “evacuation frequency and feces consistency” value in series [3] was “increase the evacuation frequency and the feces consistency”. Further, the “percentage of people involved in the studies affected by diarrhea” value (20 g of active ingredient) is reported as 5-20%. Besides, where the note is “dosage of 10 g per day”, the diarrhea entry is given as “absence of diarrhea”.
